In patent US20150344535A1, “NEUROTROPHIN-TYROSINE KINASE RECEPTOR SIGNALING” (THE UNIVERSITY OF QUEENSLAND, priority 2012, published 2015):
Entries after “also recorded” stand apart in the source; their conditions may differ.

Assays:
[1] = system: TrkB-expressing cortical neurons; assay: Western blot of phosphorylated Erk1/2 in BDNF-treated cortical neurons; format: cell-based; details: E16 cultured cortical neurons, 15 minutes after BDNF treatment
TrkA = assay: Biotinylated peptide pull down of TrkA; format: binding; details: lysate of transfected HEK293 cells, FIG. 4D
Description: (§1) For peptide pull down assays, the biotinylated c29 or LC1 control peptides were incubated with protein A-sepharose beads or Dynabeads MyOne Streptavidin T1 (Invitrogen) overnight at 4° C. Cell lysates were then added to the peptide-protein A-sepharose complex or Dynabeads MyOne Streptavidin T1 and incubated for 3 hours at 4° C. Peptide-receptor complexes were washed extensively with RIPA lysis buffer and eluted by boiling in Laemmli sample buffer. For p75^NTR construct immunoprecipitations, HEK293 cells were treated with NGF at 50 ng/ml for 10 minutes 48 hours after transfection with 1 μg DNA per well. Cells were immediately harvested in ice-cold phosphate buffered saline (PBS) and washed twice, then lysed in 1 ml of lysis buffer. Cell lysates were pre-cleared in 75 μl (1:2) protein-G sepharose: PBS by rotation end-over-end for 2 hours at 4′C. Lysates were then incubated with 3-5 μg antibody, either mouse-anti-YFP/GFP (Roche) or rabbit-anti-human p75^NTR intracellular domain antibody (Promega), and rotated end-over-end for 2 hours at 4° C.
Immunoprecipitation was performed by the addition of 75 μl (1:2) protein-G sepharose: PBS and incubation end-over-end for 16 hours at 4° C. The immunoprecipitate was washed 4 times with 1 ml of PBS then eluted in 60 μl 2×LDS sample buffer. For immunoblotting, samples were boiled for 5 minutes, separated by SDS-PAGE and transferred onto nitrocellulose membranes, then western blotted using standard protocols (see Example 1 for antibodies used).
The c29 peptide was labelled with biotin and attached to a sepharose bead column. Lysates from cells was passed over the column followed by several wash steps. The proteins that bound to the c29 peptide (proteins that are pulled down) were eluted from the column with SDS buffer and separated in size by SDS-PAGE electrophoresis. The gel was Western blotted and the membrane probed with antibodies to proteins of interest.

[2] = Fear extinction / return of fear in mice; format: in vivo, mouse; details: female mice, infusion into infralimbic prefrontal cortex, VEH RET vs C29 RET, FIG. 12
Description: Baker-Andresen et al. Learn Mem. 2013 Apr. 15; 20(5):237-40.
Following fear conditioning (Example 17), exposure to the tone without the shock is termed extinction (removal of the memory).
Researchers can time the duration of this response. Repeated exposure to the tone without the shock is termed extinction (removal of the memory).

TrkB = target: T1, TrkB (Mus musculus, UniProt P15209); assay: Biotinylated peptide pull down of TrkB from NSC-34 cells; format: binding; details: NSC-34 cell lysate, FIG. 4D
T1 construct: endogenous in cells; host or cells: NSC-34
T1 sequence (P15209 32-476 isoform P15209-2 limits assumed): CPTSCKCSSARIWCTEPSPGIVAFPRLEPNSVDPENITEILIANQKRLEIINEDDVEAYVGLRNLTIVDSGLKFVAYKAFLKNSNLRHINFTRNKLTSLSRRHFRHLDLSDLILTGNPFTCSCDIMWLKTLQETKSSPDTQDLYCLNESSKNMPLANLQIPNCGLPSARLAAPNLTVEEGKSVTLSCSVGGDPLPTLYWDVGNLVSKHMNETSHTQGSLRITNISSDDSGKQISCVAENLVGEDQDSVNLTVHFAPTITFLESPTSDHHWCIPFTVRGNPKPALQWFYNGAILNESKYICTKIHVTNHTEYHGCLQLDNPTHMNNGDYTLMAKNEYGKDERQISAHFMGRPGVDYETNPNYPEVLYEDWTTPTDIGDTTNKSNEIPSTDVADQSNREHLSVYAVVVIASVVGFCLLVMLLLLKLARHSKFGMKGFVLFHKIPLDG
Description: as §1
Immunoprecipitation was performed by the addition of 75 μl (1:2) protein-G sepharose: PBS and incubation end-over-end for 16 hours at 4° C. The immunoprecipitate was washed 4 times with 1 ml of PBS then eluted in 60 μl 2×LDS sample buffer. […]

PC12 cells = assay: NGF-FITC binding by flow cytometry, PC12 cells; details: for % of cell population with FITC above background / Maximal fluorescence per cell of the population / Mean fluorescence per FITC-positive cell / Median population fluorescence: NGF-FITC
Description: The NGF was conjugated to FITC by standard methods and detailed flow cytometry acquisition and analysis. For NGF-FITC conjugation 400 μg βNGF in 200 μl pH 8.5 NaHCO3 buffer was mixed with 5-10 μl of 10 mg/ml FITC in 100 μl DMSO for 10 hours at 4° C. on an orbital shaker set to 100 rpm. The excess FITC was removed by dialysis against 3 changes of 5 L of 10 mM Tris, 150 mM NaCl, 0.2% acetic acid, pH 8.2 for 24 hours at 4° C. Conjugate F/P characterization was determined by measuring absorbance at 280 nm and 495 nm according to manufacturer's instructions. Biological activity of the NGF-FITC conjugate was tested by performing PC12 cell neurite outgrowth assays unlabelled NGF, and comparing the levels of neuritogenesis. NGF-FITC conjugates were used within 4 weeks of synthesis.
For the flow cytometry NGF binding assays, fluorescence cell parameters of at least 20,000 events for PC12 cells and 100,000 events for HEK293 cells were acquired by flow cytometry list mode and measurements were performed on a single cell basis (with compensation for double event counting). Dead cells and debris were gated out of the analysis on the basis of forward scatter fluorescence, and mean, median and maximal fluorescence values of the gated cell populations were analysed using FACS Diva Software (Becton-Dickinson Biosciences) and FACS Express Software (Becton-Dickinson Biosciences).
Background fluorescence of HEK293 cells was non-transfected cells (±c29 or scrambled peptide treatment) treated with 26 nM NGF-FITC. For PC12 cells, the control population was cells that had not been treated with NGF-FITC. Analysis of real-time NGF-FITC receptor binding experiments was performed on 550,000-600,000 cells at 4° C. in serum free NB medium and binding kinetics were calculated from raw data files compressed to 50,000 binding events using FlowJo and MatLab Software. Data was plotted with the use of GraphPad Prism.
Only NGF-FITC preparations that promoted equivalent neurite outgrowth of PC12 cells to that of unlabelled NGF were used in binding experiments. To investigate NGF binding, PC12 or transfected HEK293 cells were serum starved for 4 hours, harvested, washed with Dulbecco's Modified Eagle Medium (DMEM), and counted. When used, c29 or scrambled peptide were added to cultures for the third hour of the serum starvation procedure. 1×10^7 cells/ml suspended in 500 μl of serum-free DMEM were incubated with 26 nM NGF-FITC on ice for 60 minutes before analysis. For binding competition assays, following 1 hour in NGF-FITC, cells were washed with ice-cold PBS containing 0.1% normal bovine serum and incubated on ice with unlabeled NGF at concentrations ranging from 100 pM to 10 μM for 30 minutes, then washed twice in PBS before being analysed on a BD Flow Cytometer FACS Scan (Becton-Dickinson).
First, to determine the concentration of c29 required to modulate NGF binding, c29 levels were titrated with a fixed concentration of NGF-FITC.

## KRWNSCKQNKQGANSRPVNQTPPPEGEKL (c29- Fragment of p75ICD) [29 amino acid peptide of the p75NTR juxtamembrane Chopper domain; delivered to cells linked to PTD4 or disulfide-linked carrier]
[1]
  phosphorylated Erk1/2 in response to BDNF: enhanced trophic signaling
TrkA
  pull down of TrkA: able to pull down TrkA
[2]
  return of fear: prevents the return of fear; also recorded: blocked the return of fear
TrkB
  pull down of endogenously expressed TrkB: able to pull down endogenously expressed TrkB
PC12 cells; c.f. PC12
  % of cell population with FITC above background: 115.7 ± 19.7%
  Maximal fluorescence per cell of the population: 123.6 ± 17.3%
  Mean fluorescence per FITC-positive cell: 126.3 ± 4.8%
  Median population fluorescence: 127.4 ± 8.1%
PC12 cells; c.f. PC12 + SC
  % of cell population with FITC above background: 115.3 ± 13.4%
  Maximal fluorescence per cell of the population: 123.1 ± 5.2%
  Mean fluorescence per FITC-positive cell: 121.4 ± 5.5%
  Median population fluorescence: 122.5 ± 8.4%
PC12 cells; PC12 cells, compared to control or scrambled peptide-treated cells
  all measured fluorescence parameters of the FITC-positive population: increased
PC12 cells; fixed concentration of NGF-FITC, FIG. 10A
  c29 concentration at which an increase in median fluorescence was observed: 1 pM
